# Reference: patent publication US7524865B2, “Methods and compositions for treating an ocular neovascular disease” (priority 1993, dated 2009)
# Read-outs that look alike come from different tables or passages of the source.
# How the values were obtained:
# [1] = test system: βFGF induced corneal neovascularization; conditions: for median inhibition of the area of vascularized cornea: day 8, percent of median control
# Description: Pellets for implantation into rabbit corneas were made by mixing 110 μl of saline containing 12 μg of recombinant βFGF (Takeda Pharmaceuticals-Japan) with 40 mg of sucralfate (Bukh Meditec-Denmark); this suspension was added to 80 μl of 12% hydron (Interferon Sciences) in ethanol. 10 μl aliquots of this mixture was then pipetted onto teflon pegs and allowed to dry producing approximately 17 pellets. A pellet was implanted into corneal micropockets of each eye of an anesthetized female New Zealand white rabbit, 2 mm from the limbus followed by topical application of erythromycin ointment onto the surface of the cornea. The animals were fed daily from 2 days post-implantation by gastric lavage with either drug suspended in 0.5% carboxymethyl cellulose or 0.5% carboxymethyl cellulose alone. Thalidomide was purchased from Andrulus Pharmaceutical (Maryland) and the EM-12 and Supidimide were kindly provided by Grunenthal GMBH (Germany). The animals were examined with a slit lamp every other day in a masked manner by the same corneal specialist. The area of corneal neovascularization was determined by measuring with a reticule the vessel length (L) from the limbus and the number of clock hours (C) of limbus involved. A formula was used to determine the area of a circular band segment: C/12*3.1416 [r^2−(r−L)^2] where r=6 mm the measured radius of the rabbit cornea.
# Pellets containing βFGF and sucralfate were implanted into micropockets of both corneas of rabbits according to Example II. […] The area of corneal neovascularization was measured from day 4 through day 12. Day 8 measurements were used for comparison between groups. […] Statistical analysis was performed with ANOVA with ranked data to account for interexperimental variation and to guard against a non-normal distribution of data (i.e. outliers) by utilizing a nonparametric method.
# [2] = Stability compared with thalidomide; format: physicochemical
# [3] = test system: B16-BL6 melanoma cells; assay: B16-BL6 melanoma pulmonary metastasis model; format: in vivo, C57B1/6 mice
# Description: B16-BL6 melanoma cells (5×10^4) were injected intravenously into the tail veins of C57B1/6 mice. Three days later, the mice were treated intraperitoneally with increasing doses of thalidomide or 2-phthalimidinoglutaric acid (EM-138) on alternate days. Fourteen days after tumor cell inoculation, the lungs were removed from the mice and the surface pulmonary metastases were counted.
# B16-BL6 melanoma cells (5×10^4) were injected intravenously into the tail veins of C57B1/6 mice. Three days later, the mice were treated orally with increasing doses of thalidomide or 2-phthalimidinoglutaric acid (EM-138) on alternate days. Fourteen days after tumor cell inoculation, the lungs were removed from the mice and the surface pulmonary metastases were counted.
# B16-BL6 melanoma cells (5×10^4) were injected intravenously into the tail veins of C57B1/6 mice. Three days later, the mice received a gavage treatment with 0.8 mmol/kg of 2-phthalimidinoglutaric acid (EM-138). The mice received either a single treatment, five treatments on alternate days, or one treatement every day for eleven days. Fourteen days after tumor cell inoculation, the lungs were removed from the mice and the surface pulmonary metastases were counted.
# B16-BL6 melanoma cells (5×10^4) were injected intravenously into the tail veins of C57B1/6 mice. Three days later, treatment began. The mice received intraperitoneal injections of thalidomide (0.4 mmol/kg), thalidomide (3.0 mmol/kg) or 2-phthalimidinoglutaric acid (EM-138) (0.4 mmol/kg) every day. Fourteen days after tumor cell inoculation, the lungs were removed from the mice and the surface pulmonary metastases were counted.
# [4] = test system: Crohn's disease; assay: Treatment of a patient with Crohn's disease; format: in vivo, human; conditions: 100 mg twice a day orally, one week
# Description: A patient with Crohn's disease was treated using the methods of the present invention. […] Thalidomide was orally administered to them at a dosage of 100 mg twice a day.
# [5] = 0.4 mmol/kg intraperitoneal every day from day 3, lungs day 14
smiles,measurement,setting,value
O=C1CCC(N2Cc3ccccc3C2=O)C(=O)N1 (stereo not shown) [EM-12],inhibition in rabbit cornea assay,[1]; 100 mg/kg/day,21%
same,median inhibition of the area of vascularized cornea,[1]; 200 mg/kg orally,42%
same,inhibition in rabbit cornea assay,[1]; 200 mg/kg/day,43%
"O=C(O)CCC(C(=O)O)N1Cc2ccccc2C1=O (stereo not shown) [EM-138, 2-phthalimidinoglutaric acid]",stability relative to thalidomide,[2],more stable than thalidomide
same,"T/C, ratio of lung metastases of treated vs. control animals",[3]; [5],0.2
same,reduction of pulmonary metastases,[3]; [5],80%
same,inhibition of B16-BL6 metastasis,[3]; 0.8 mmol/kg/day,over 90%
same,inhibition of metastasis after a single administration,[3]; single administration,significantly inhibits metastasis
O=C1NCCCC1N1C(=O)c2ccccc2S1(=O)=O (stereo not shown) [Supidimide],activity in the rabbit cornea assay (in words),[1]; 200 mg/kg orally,no activity
same,"area of corneal neovascularization, % of control","[1]; 200 mg/kg orally, day 8",107 % of control
O=C1CCC(N2C(=O)c3ccccc3C2=O)C(=O)N1 (stereo not shown) [thalidomide],density of vessel ingrowth,[1]; 200 mg/kg orally,markedly reduced
same,onset of inhibition of angiogenesis,[1]; 200 mg/kg orally (FIG. 7),seen after only two doses
same,"inhibition of the area of vascularized cornea, range in three experiments","[1]; 200 mg/kg orally, begun day 2, day 8 measurements",30-51%
same,median inhibition of the area of vascularized cornea,[1]; 200 mg/kg orally,36%
same,inhibition of pulmonary metastases (in words),[3]; 0.4 mmol/kg intraperitoneal every day,minimal inhibition
same,"T/C, ratio of lung metastases of treated vs. control animals",[3]; [5],0.9
same,inhibition of pulmonary metastases (in words),[3]; 3.0 mmol/kg intraperitoneal every day,inhibited metastases
same,"gastrointestinal symptoms, including diarrhea and cramping",[4],lessened
same,skin lesion on the lower leg,[4],resolved
